{
  "source": "paper PMC6789174",
  "about": "(Drug Design, Development and Therapy, 2019)",
  "key": {"[1]": {"molecular_target": "T1, porcine α-amylase (Sus scrofa, UniProt P00690)", "T1 sequence (P00690 16-511)": "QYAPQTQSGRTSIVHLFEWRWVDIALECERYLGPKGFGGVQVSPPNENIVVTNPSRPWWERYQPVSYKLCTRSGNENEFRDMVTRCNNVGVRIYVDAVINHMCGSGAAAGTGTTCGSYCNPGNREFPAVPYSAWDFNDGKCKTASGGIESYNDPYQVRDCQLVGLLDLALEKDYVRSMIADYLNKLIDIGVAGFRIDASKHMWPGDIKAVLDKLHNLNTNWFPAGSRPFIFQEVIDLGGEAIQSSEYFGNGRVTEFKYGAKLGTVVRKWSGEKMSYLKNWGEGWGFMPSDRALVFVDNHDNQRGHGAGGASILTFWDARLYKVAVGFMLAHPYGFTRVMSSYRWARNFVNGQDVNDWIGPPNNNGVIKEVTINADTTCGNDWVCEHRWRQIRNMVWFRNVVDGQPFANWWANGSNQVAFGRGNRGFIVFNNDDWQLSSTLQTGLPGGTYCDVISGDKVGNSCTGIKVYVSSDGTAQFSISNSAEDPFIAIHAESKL", "experiment": "biochemical"}, "[2]": {"molecular_target": "α-glucosidase (Saccharomyces cerevisiae, UniProt P53341)", "sequence (P53341 whole entry)": "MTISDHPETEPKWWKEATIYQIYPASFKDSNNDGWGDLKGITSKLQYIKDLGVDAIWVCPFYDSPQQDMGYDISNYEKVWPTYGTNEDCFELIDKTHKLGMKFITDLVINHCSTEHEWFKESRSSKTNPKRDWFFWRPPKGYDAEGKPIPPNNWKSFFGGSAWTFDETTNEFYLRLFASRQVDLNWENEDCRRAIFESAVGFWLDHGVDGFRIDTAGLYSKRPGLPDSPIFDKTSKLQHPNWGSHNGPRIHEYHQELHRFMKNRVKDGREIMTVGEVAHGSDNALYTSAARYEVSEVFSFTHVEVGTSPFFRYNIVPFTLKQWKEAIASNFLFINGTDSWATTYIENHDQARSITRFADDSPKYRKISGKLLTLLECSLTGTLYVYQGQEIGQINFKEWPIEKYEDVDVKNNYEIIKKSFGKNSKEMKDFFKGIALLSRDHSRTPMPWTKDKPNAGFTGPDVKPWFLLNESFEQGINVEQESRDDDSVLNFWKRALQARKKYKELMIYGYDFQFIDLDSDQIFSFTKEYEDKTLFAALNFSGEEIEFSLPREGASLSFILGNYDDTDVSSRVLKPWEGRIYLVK", "experiment": "Alpha glucosidase inhibition", "type": "biochemical"}, "[3]": {"molecular_target": "Butyrylcholinesterase (Homo sapiens, UniProt P06276)", "sequence (P06276 29-602)": "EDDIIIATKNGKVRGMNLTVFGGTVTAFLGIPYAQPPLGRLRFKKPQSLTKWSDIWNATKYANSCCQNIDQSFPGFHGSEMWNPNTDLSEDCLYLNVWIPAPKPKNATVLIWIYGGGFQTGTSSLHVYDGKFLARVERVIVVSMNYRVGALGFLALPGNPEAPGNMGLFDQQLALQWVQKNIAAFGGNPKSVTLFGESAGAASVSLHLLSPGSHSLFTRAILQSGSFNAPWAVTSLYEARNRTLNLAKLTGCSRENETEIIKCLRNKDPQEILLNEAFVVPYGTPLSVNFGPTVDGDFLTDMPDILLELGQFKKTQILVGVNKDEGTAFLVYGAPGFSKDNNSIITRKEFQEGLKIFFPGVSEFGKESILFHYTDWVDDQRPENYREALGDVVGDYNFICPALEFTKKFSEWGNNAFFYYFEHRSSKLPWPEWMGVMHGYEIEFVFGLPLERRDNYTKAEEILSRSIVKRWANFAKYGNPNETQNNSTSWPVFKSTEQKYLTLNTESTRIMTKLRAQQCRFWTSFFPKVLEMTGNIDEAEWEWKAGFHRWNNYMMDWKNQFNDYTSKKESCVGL", "experiment": "Anticholinesterase assay", "type": "biochemical"}, "[4]": {"molecular_target": "Acetylcholinesterase (Homo sapiens, UniProt P22303)", "sequence (P22303 32-614, species assumed)": "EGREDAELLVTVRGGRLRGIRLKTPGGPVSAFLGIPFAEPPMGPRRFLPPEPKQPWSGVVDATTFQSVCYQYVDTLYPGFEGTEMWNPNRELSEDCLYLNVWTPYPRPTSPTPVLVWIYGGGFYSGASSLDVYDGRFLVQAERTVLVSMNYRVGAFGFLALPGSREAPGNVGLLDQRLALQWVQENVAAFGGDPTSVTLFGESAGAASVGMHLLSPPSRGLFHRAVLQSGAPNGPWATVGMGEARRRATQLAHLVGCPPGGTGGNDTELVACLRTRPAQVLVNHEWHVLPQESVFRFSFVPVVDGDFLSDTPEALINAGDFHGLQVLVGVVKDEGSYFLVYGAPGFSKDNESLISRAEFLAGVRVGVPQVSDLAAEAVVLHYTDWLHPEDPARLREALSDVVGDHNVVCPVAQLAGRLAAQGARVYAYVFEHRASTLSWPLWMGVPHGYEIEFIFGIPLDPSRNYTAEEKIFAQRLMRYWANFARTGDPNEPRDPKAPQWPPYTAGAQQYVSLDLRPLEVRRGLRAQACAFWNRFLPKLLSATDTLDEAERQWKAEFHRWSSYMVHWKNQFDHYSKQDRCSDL", "experiment": "biochemical"}, "[5]": {"molecular_target": "T2, glucose-6-phosphatase (Homo sapiens, UniProt P35575)", "T2 sequence (P35575 1-357)": "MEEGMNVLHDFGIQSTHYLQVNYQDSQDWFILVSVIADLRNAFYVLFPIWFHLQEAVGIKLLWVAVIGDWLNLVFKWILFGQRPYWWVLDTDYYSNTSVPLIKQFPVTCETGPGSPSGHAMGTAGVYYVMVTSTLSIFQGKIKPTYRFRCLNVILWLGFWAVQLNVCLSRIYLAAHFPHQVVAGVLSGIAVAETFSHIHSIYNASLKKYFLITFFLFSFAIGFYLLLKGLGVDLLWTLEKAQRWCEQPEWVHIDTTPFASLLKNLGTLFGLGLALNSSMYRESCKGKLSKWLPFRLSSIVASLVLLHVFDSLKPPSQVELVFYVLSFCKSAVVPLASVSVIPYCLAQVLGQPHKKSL", "experiment": "Glucose-6-phosphatase activity", "type": "biochemical", "settings": "33°C, pH 6.7, control 72.0"}, "[6]": {"experiment": "DPPH free radical scavenging"}, "[7]": {"experiment": "ABTS free radical scavenging"}, "[8]": {"tested_on": "Agrobacterium tumefaction", "experiment": "Anti-bacterial activity, agar well diffusion", "type": "cell-based"}, "[9]": {"tested_on": "Proteus vulgaris", "experiment": "Anti-bacterial activity, agar well diffusion", "type": "cell-based"}, "[10]": {"tested_on": "Staphylococcus aureus", "experiment": "Anti-bacterial activity, agar well diffusion", "type": "cell-based"}, "[11]": {"settings": "read-out: %Inhibition (mean ± SEM), alpha amylase"}, "[12]": {"settings": "read-out: %BChE Inhibition (mean ± SEM)"}, "[13]": {"settings": "read-out: %AChE Inhibition (mean ± SEM)"}, "[14]": {"settings": "read-out: ZI (Zone of inhibition), Agrobacterium tumefaction"}, "[15]": {"settings": "read-out: ZI (Zone of inhibition), Proteus vulgaris"}, "[16]": {"settings": "read-out: ZI (Zone of inhibition), Staphylococcus aureus"}},
  "note": "Read-outs that look alike come from different tables or passages of the source.",
  "data": [
    {"smiles": "C[C@H]1O[C@H](O[C@H]2[C@H](O)[C@@H](O)[C@@H](O[C@H]3[C@H](O)[C@@H](O)C(O)O[C@@H]3CO)O[C@@H]2CO)[C@H](O)[C@@H](O)[C@@H]1N[C@H]1C=C(CO)[C@@H](O)[C@H](O)[C@H]1O", "note": "(some centres unmarked) [Acarbose]", "values": [
      {"measurement": "inhibition at 125 µg/mL", "setting": "[1]; [11]", "result": "58.1 ± 1.34", "unit": "%"},
      {"measurement": "inhibition at 500 µg/mL", "setting": "[1]; [11]", "result": "73 ± 1.34", "unit": "%"},
      {"measurement": "inhibition at 1000 µg/mL", "setting": "[1]; [11]", "result": "88.1 ± 1.13", "unit": "%"},
      {"measurement": "%Inhibition (mean ± SEM), alpha glucosidase", "setting": "[2]", "result": "94.02 ± 1.23", "unit": "%"},
      {"measurement": "%Inhibition (mean ± SEM), alpha glucosidase", "setting": "[2]; concentration 125 μg/mL", "result": "59.83 ± 2.04", "unit": "%"},
      {"measurement": "%Inhibition (mean ± SEM), alpha glucosidase", "setting": "[2]; concentration 250 μg/mL", "result": "68.14 ± 2.18", "unit": "%"},
      {"measurement": "%Inhibition (mean ± SEM), alpha glucosidase", "setting": "[2]; concentration 500 μg/mL", "result": "79.11 ± 2.12", "unit": "%"}
    ]},
    {"smiles": "COc1ccc2c3c1O[C@H]1C[C@@H](O)C=C[C@@]31CCN(C)C2", "note": "[Galantamine, reference compound]", "values": [
      {"measurement": "%BChE Inhibition (mean ± SEM)", "setting": "[3]; concentration 500 μg/mL", "result": "87.16 ± 1.23", "unit": "%"},
      {"measurement": "inhibition at 125 µg/mL", "setting": "[3]; [12]", "result": "64.8 ± 0.73", "unit": "%"},
      {"measurement": "inhibition at 1000 µg/mL", "setting": "[3]; [12]", "result": "92.3 ± 0.74", "unit": "%"}
    ]},
    {"smiles": "S=C(NC(c1ccccn1)C(Cc1ccccc1)Cc1ccccc1)NC(c1ccccn1)C(Cc1ccccc1)Cc1ccccc1", "note": "(centres unmarked) [Compound I, 1,3-bis(2-benzyl-3-phenyl-1-(pyridine-2-yl)propyl)thiourea]", "values": [
      {"measurement": "IC50", "setting": "[4]", "result": 1550, "unit": "µM"},
      {"measurement": "%AChE Inhibition (mean ± SEM)", "setting": "[4]; concentration 500 μg/mL", "result": "55.59 ± 1.23", "unit": "%"},
      {"measurement": "inhibition at 125 µg/mL", "setting": "[4]; [13]", "result": "38.6 ± 1.33", "unit": "%"},
      {"measurement": "inhibition at 250 µg/mL", "setting": "[4]; [13]", "result": "46.1 ± 1.85", "unit": "%"},
      {"measurement": "inhibition at 1000 µg/mL", "setting": "[4]; [13]", "result": "68.1 ± 1.4", "unit": "%"},
      {"measurement": "IC50", "setting": "[3]", "result": 309, "unit": "µM"},
      {"measurement": "inhibition at 125 µg/mL", "setting": "[3]; [12]", "result": "48.1 ± 1.08", "unit": "%"},
      {"measurement": "inhibition at 250 µg/mL", "setting": "[3]; [12]", "result": "51.4 ± 2.05", "unit": "%"},
      {"measurement": "inhibition at 500 µg/mL", "setting": "[3]; [12]", "result": "56.3 ± 1.66", "unit": "%"},
      {"measurement": "inhibition at 1000 µg/mL", "setting": "[3]; [12]", "result": "57.81 ± 0.54", "unit": "%"},
      {"measurement": "IC50", "setting": "[1]", "result": 130, "unit": "µM"},
      {"measurement": "inhibition at 125 µg/mL", "setting": "[1]; read-out: %Inhibition (mean ± SEM), alpha amylase, concentration 125 µg/mL", "result": "60.2 ± 1.03", "unit": "%"},
      {"measurement": "inhibition at 250 µg/mL", "setting": "[1]; read-out: %Inhibition (mean ± SEM), alpha amylase, concentration 250 µg/mL", "result": "63.1 ± 1.41", "unit": "%"},
      {"measurement": "inhibition at 500 µg/mL", "setting": "[1]; read-out: %Inhibition (mean ± SEM), alpha amylase, concentration 500 µg/mL", "result": "68.1 ± 0.87", "unit": "%"},
      {"measurement": "inhibition at 1000 µg/mL", "setting": "[1]; read-out: %Inhibition (mean ± SEM), alpha amylase, concentration 1000 µg/mL", "result": "70.29 ± 0.31", "unit": "%"},
      {"measurement": "Total Activity of glucose-6-phosphatase", "setting": "[5]; concentration 125 µg/mL", "result": "34.11 mg of P released per hour"},
      {"measurement": "Total Activity of glucose-6-phosphatase", "setting": "[5]; concentration 250 µg/mL", "result": "31.62 mg of P released per hour"},
      {"measurement": "Total Activity of glucose-6-phosphatase", "setting": "[5]; concentration 500 µg/mL", "result": "25.31 mg of P released per hour"},
      {"measurement": "DPPH IC50", "setting": "[6]", "result": 67, "unit": "µg/mL"},
      {"measurement": "DPPH % I (mean ± S.E.M)", "setting": "[6]; concentration 125 μg/mL", "result": "78.55 ± 1.73", "unit": "%"},
      {"measurement": "DPPH % I (mean ± S.E.M)", "setting": "[6]; concentration 250 μg/mL", "result": "80.21 ± 1.21", "unit": "%"},
      {"measurement": "DPPH % I (mean ± S.E.M)", "setting": "[6]; concentration 500 μg/mL", "result": "82.16 ± 1.01", "unit": "%"},
      {"measurement": "DPPH % I (mean ± S.E.M)", "setting": "[6]; concentration 1000 μg/mL", "result": "86.67 ± 1.20", "unit": "%"},
      {"measurement": "ABTS IC50", "setting": "[7]", "result": 66, "unit": "µg/mL"},
      {"measurement": "ABTS % I (mean ± S.E.M)", "setting": "[7]; concentration 125 μg/mL", "result": "77.55 ± 1.93", "unit": "%"},
      {"measurement": "ABTS % I (mean ± S.E.M)", "setting": "[7]; concentration 250 μg/mL", "result": "78.21 ± 1.21", "unit": "%"},
      {"measurement": "ABTS % I (mean ± S.E.M)", "setting": "[7]; concentration 500 μg/mL", "result": "80.16 ± 2.01", "unit": "%"},
      {"measurement": "ABTS % I (mean ± S.E.M)", "setting": "[7]; concentration 1000 μg/mL", "result": "81.67 ± 1.20", "unit": "%"},
      {"measurement": "MIC", "setting": "[8]; read-out: MIC, Agrobacterium tumefaction", "result": 4.02, "unit": "µg/mL"},
      {"measurement": "zone of inhibition at 10 µg/mL", "setting": "[8]; [14]", "result": 21, "unit": "mm"},
      {"measurement": "zone of inhibition at 20 µg/mL", "setting": "[8]; [14]", "result": 24, "unit": "mm"},
      {"measurement": "zone of inhibition at 30 µg/mL", "setting": "[8]; [14]", "result": 26, "unit": "mm"},
      {"measurement": "MIC", "setting": "[9]; read-out: MIC, Proteus vulgaris", "result": 9.76, "unit": "µg/mL"},
      {"measurement": "zone of inhibition at 10 µg/mL", "setting": "[9]; [15]", "result": 15, "unit": "mm"},
      {"measurement": "zone of inhibition at 20 µg/mL", "setting": "[9]; [15]", "result": 22, "unit": "mm"},
      {"measurement": "zone of inhibition at 30 µg/mL", "setting": "[9]; [15]", "result": 24, "unit": "mm"},
      {"measurement": "MIC", "setting": "[10]; read-out: MIC, Staphylococcus aureus", "result": 19.6, "unit": "µg/mL"},
      {"measurement": "zone of inhibition at 10 µg/mL", "setting": "[10]; [16]", "result": 13, "unit": "mm"},
      {"measurement": "zone of inhibition at 20 µg/mL", "setting": "[10]; [16]", "result": 16, "unit": "mm"},
      {"measurement": "zone of inhibition at 30 µg/mL", "setting": "[10]; [16]", "result": 18, "unit": "mm"}
    ]}
  ]
}
